Measured values reported in PMC11341359, “Assessing the immunogenicity risk of salmon calcitonin peptide impurities using in silico and in vitro methods” (Frontiers in Pharmacology, 2024).
Peptide text beside a SMILES is read from it.

Legend:
[1] = molecular target: T1, HLA DRB1*0101 (Homo sapiens, UniProt P01903+P01911, A100R/D57E/F55L/F60I/F76Y/I96L/L162R/M171V/P40L/Q125E/R42F/V115G/Y59C); assay: Class II HLA competition binding assay; conditions: short assay peptides (Cys7 replaced with Ser); competition with biotinylated allele-specific peptide, soluble HLA DR, overnight, time-resolved fluorescence, triplicate, seven concentrations; unit inferred
T1 construct: incubated overnight to equilibrium with a soluble HLA DR molecule; purchased Benaroya Research Institute, Seattle, Washington
Procedure: (§1) The class II HLA binding assays performed for these studies measure the binding affinity of a target peptide to HLA DRB1*0101, *0301, *0401, *0701, *0901, *1101, *1301, and *1501 in a standardized competition assay. This assay was originally described by [Steere et al. (2006)] and adapted by EpiVax. Previous publications have described the assay in detail ([McMurry et al., 2007]; [Ardito et al., 2011]). Briefly, unlabeled test peptides are incubated overnight to equilibrium with a soluble HLA DR molecule (Benaroya Research Institute, Seattle, Washington) and a biotinylated, allele-specific competitor peptide. The binding reaction is then neutralized, and peptide–HLA complexes are transferred to a 96-well plate coated with the pan-HLA DR antibody, clone L243 (BioLegend), and incubated overnight. The following day, Europium-labeled streptavidin (PerkinElmer, Waltham, MA) is added to identify the peptide–HLA complexes. An indirect measure of binding is determined by time-resolved fluorescence. Each peptide–HLA binding reaction is evaluated in triplicate over a range of seven concentrations. The percent inhibition values at seven distinct concentrations are used to calculate the IC50 value, defined as the concentration at which the test peptide inhibits 50% of the labeled competitor peptide.
(§2) Peptides that bind to the HLA at an IC50 value of 100 nM or less are considered very high-affinity binders. Peptides that bind at IC50 values ranging from 100 nM to 1,000 nM are considered high-affinity binders. Peptides that bind at IC50 values ranging from 1,000 nM to 10,000 nM are considered moderate-affinity binders. Peptides that bind at IC50 values ranging from 10,000 nM to 100,000 nM are considered low-affinity binders, and those with IC50 values ranging from 100,000 nM to 1,000,000 nM are considered negligible-affinity binders. […] We note that these concentrations are specific for the in vitro HLA-binding assay and are used to compare the relative binding affinities of the impurity sequences to the API and independent from the peptide concentrations described for the in vitro T-cell assays described below.

[2] = molecular target: T2, HLA DRB1*0301 (Homo sapiens, UniProt P01903+P01911, A100K/A102G/A103R/A169T/F55Y/I96L/K41T/L162R/M171V/P40S/Q125H/Q178H/Q39Y/R42S/S66N/T106N/T262R/W38E/Y61H); assay: Class II HLA competition binding assay; conditions: short assay peptides (Cys7 replaced with Ser), competition with biotinylated allele-specific peptide, soluble HLA DR, overnight, time-resolved fluorescence, triplicate, seven concentrations; for IC50: unit inferred
T2 construct: incubated overnight to equilibrium with a soluble HLA DR molecule; purchased Benaroya Research Institute, Seattle, Washington
Procedure: as §1, §2

[3] = molecular target: T3, HLA DRB1*0401 (Homo sapiens, UniProt P01903+P01911, A100K/A169T/F76Y/I96L/K127E/L162R/M171V/N62H/P40V/Q125Y/R42H/S133A/S149N/S66Y/V115G/V209L/W38E); assay: Class II HLA competition binding assay; conditions: short assay peptides (Cys7 replaced with Ser); competition with biotinylated allele-specific peptide, soluble HLA DR, overnight, time-resolved fluorescence, triplicate, seven concentrations
T3 construct: incubated overnight to equilibrium with a soluble HLA DR molecule; purchased Benaroya Research Institute, Seattle, Washington
Procedure: as §1, §2

[4] = molecular target: HLA DRB1*0701 (Homo sapiens, UniProt P01903+P01911, A100R/A102G/A103Q/D57E/D86V/E43K/F76Y/K127E/L162R/M171V/P40G/Q125H/Q99D/R33Q/R42Y/R54Q/S133A/S66F/T210M/V115G/Y107V/Y59L/Y89S); assay: Class II HLA competition binding assay; conditions: short assay peptides (Cys7 replaced with Ser); competition with biotinylated allele-specific peptide, soluble HLA DR, overnight, time-resolved fluorescence, triplicate, seven concentrations
Procedure: as §1, §2

[5] = molecular target: HLA DRB1*0901 (Homo sapiens, UniProt P01903+P01911, A100R/A103E/D57H/D86V/F55Y/F60I/F76Y/I96F/K127E/L162R/M171V/P40D/Q125H/Q99R/R33Q/R42F/S133A/S66N/T210M/V115G/W38K/Y107V/Y59G/Y89S); assay: Class II HLA competition binding assay; conditions: short assay peptides (Cys7 replaced with Ser); competition with biotinylated allele-specific peptide, soluble HLA DR, overnight, time-resolved fluorescence, triplicate, seven concentrations
Procedure: as §1, §2

[6] = molecular target: T4, HLA DRB1*1101 (Homo sapiens, UniProt P01903+P01911, A100R/A169T/A87E/I96F/K41T/L162R/M171V/P40S/Q125H/Q178H/Q39Y/Q99D/R42S/S66Y/T262R/V115G/W38E); assay: Class II HLA competition binding assay; conditions: short assay peptides (Cys7 replaced with Ser), competition with biotinylated allele-specific peptide, soluble HLA DR, overnight, time-resolved fluorescence, triplicate, seven concentrations; for IC50: unit inferred
T4 construct: incubated overnight to equilibrium with a soluble HLA DR molecule; purchased Benaroya Research Institute, Seattle, Washington
Procedure: as §1, §2

[7] = molecular target: T5, HLA DRB1*1301 (Homo sapiens, UniProt P01903+P01911, A100E/A169T/K41T/L162R/M171V/P40S/Q125H/Q178H/Q39Y/Q99D/R42S/S66N/T262R/W38E/Y61H); assay: Class II HLA competition binding assay; conditions: short assay peptides (Cys7 replaced with Ser), competition with biotinylated allele-specific peptide, soluble HLA DR, overnight, time-resolved fluorescence, triplicate, seven concentrations; for IC50: unit inferred
T5 construct: incubated overnight to equilibrium with a soluble HLA DR molecule; purchased Benaroya Research Institute, Seattle, Washington
Procedure: as §1, §2

[8] = molecular target: T6, HLA DRB1*1501 (Homo sapiens, UniProt P01903+P01911); assay: Class II HLA competition binding assay; conditions: short assay peptides (Cys7 replaced with Ser); competition with biotinylated allele-specific peptide, soluble HLA DR, overnight, time-resolved fluorescence, triplicate, seven concentrations; unit inferred
T6 construct: incubated overnight to equilibrium with a soluble HLA DR molecule; purchased Benaroya Research Institute, Seattle, Washington
Procedure: as §1, §2

[9] = tested on: human donor PBMCs; assay: In vitro immunogenicity protocol (IVIP) naïve T-cell assay, IFNγ FluoroSpot; type: cell-based; conditions: individual full-length peptides at 20 μg/mL, 14 days, then 48 h IFNγ FluoroSpot; 16 donors; positive: SFC > 50 per 10^6, SI ≥ 2, p < 0.05 vs medium
Procedure: To improve the sensitivity of the T-cell assays, fresh (not frozen) blood samples were obtained from human blood donors for the T-cell assays (internal observations). Specifically, PBMCs were isolated from leukocyte reduction filters obtained from the Rhode Island Blood Center (RIBC) in Providence, RI. To confirm the sufficient breadth of HLA coverage in the donor cohort, high-resolution (4-digit) class II HLA haplotyping of donors was performed at the Transplant Immunology Laboratory at Hartford Hospital in Hartford, CT, using the sequence-specific oligonucleotide method (SSP-PCR). […] supertype alleles were expressed by the donor PBMCs used in the assays reported here (HLA DRB1*0301, *0401, *0701, *1101, *1301, and *1501). The HLA identified for the cohort of subjects used in this study is representative of 81.81% of the HLA alleles expressed by the global population. Forty percent of the donors were female and 60% of the donors were male, and their ages ranged from 17 to 83 years. Donor cohort demographic information and HLA types for each donor are provided in Supplementary Figure S1. To measure the naïve T-cell response to salmon calcitonin and impurity peptides, cells were plated at a density of 2.5 × 10^5 cells per well in 96-well U-bottom cell plates in RPMI 1640 cell culture medium supplemented with IL-2 (10 ng/mL) and IL-7 (20 ng/mL) (Gibco). The cells were incubated with […]®, or a synthetic salmon calcitonin peptide, or individual peptide impurities, at a concentration of 20 μg/mL for 14 days at 37°C/5% CO2, with medium exchanges that include cytokine support (IL-2 and IL-7) on days 4, 7, and 11. A concentration of 20 μg/mL (5.8 μM) was the dose selected for the SCT API and the four selected impurities, following a dose-ranging study performed with […]® to determine the maximum dose at which a T-cell response could be observed with no observed toxicity to the cells. The dose-ranging study was performed following the same protocol as described above. The following control antigens were used in the T-cell assays for each of the PBMC samples: positive controls, keyhole limpet hemocyanin (KLH; Thermo Fisher), and the antigenic peptide pool CEFT (ImmunoSpot). In addition, human serum albumin (HSA; Sigma-Aldrich) was used as a negative control antigen, and phytohemagglutinin (PHA; Thermo Fisher), a T-cell mitogen, was used to confirm T-cell functionality. […] Responses were considered positive if (1) the number of spots was at least twice the background (stimulation index [SI] ≥ 2); (2) there were greater than 50 spot-forming cells (SFCs) per 1.0 × 10^6 PBMCs; and (3) responses were statistically different from the media (Student's t-test). Each of the test articles (SCT API, RLD, or impurity peptide) and each of the positive and negative controls were evaluated in nine replicate wells containing donor PBMCs. Following the 14-day incubation, cells in the nine replicate wells were collected, pooled by the treatment condition, and re-plated in triplicate on a precoated anti-human IFNγ FluoroSpot plate (Mabtech) at a concentration of 1.0 × 10^5 cells per well in the presence of an appropriate test article or control reagent in supplemented RPMI 1640 culture medium. The FluoroSpot plates were incubated for 48 h at 37°C/5% CO2. After 48 h, FluoroSpot plates were developed according to the manufacturer's directions. Spots were counted on an iSpot Spectrum FluoroSpot reading system (AID, Strassberg, Germany) using software 7.0, build 14790. Fluorophore-specific spot parameters were defined using the spot size, spot intensity, and spot gradient. A spot separation algorithm was applied for optimal spot detection. Analysis and counting of spots were performed by unbiased experts at ZellNet Consulting, Inc. (Fort Lee, NJ).

[10] = of those who develop ADAs; ref LEVY et al., 1988; Grauer et al., 1995; cited from earlier work
From the text: In this case study, we describe an exercise to assess the immunogenicity risk of generic peptide impurities that were identified in salmon calcitonin (SCT). SCT is a peptide drug currently under development for the generic market by several manufacturers. Salmon calcitonin is a 32-amino acid peptide drug approved in the United States for the treatment of postmenopausal osteoporosis, Paget’s disease, and hypercalcemia. Salmon calcitonin shares only 50% amino acid sequence homology with human calcitonin (Figure 1), and despite its therapeutic benefits, in clinical trials, 40%–70% of patients tre ...

[11] = greater than human calcitonin; ref Epand et al., 1983; Lee et al., 2011; Andreassen et al., 2014; cited from earlier work
From the text: Despite the risk of immunogenicity, SCT is preferred for therapeutic use over human calcitonin due to its 50-fold greater potency in vivo. Increased potency is attributed to the ability of the peptide to adopt an α-helical structure and bind to the human calcitonin receptor with a greater, and nearly irreversible, affinity relative to the human homolog ([Epand et al., 1983]; [Lee et al., 2011]; [Andreassen et al., 2014]).

Compound | IC50 [1] [µM] | IC50 [2] [µM] | IC50 [3] [µM] | IC50 [4] [µM] | IC50 [5] [µM] | IC50 [6] [µM] | IC50 [7] [µM] | IC50 [8] [µM] | IC50, HLA DRB1*0301 ([2]; unit not given) | IC50, HLA DRB1*0401 [3] | IC50, HLA DRB1*0701 [4] | IC50, HLA DRB1*0901 [5] | IC50, HLA DRB1*1101 ([6]; unit not given) | IC50, HLA DRB1*1301 ([7]; unit not given) | Percentage of Responding Donors [9] [%] | Responding Donors [9] | patients with ADAs who develop neutralizing anti-SCT antibodies (NADAs) [10] | potency in vivo relative to human calcitonin [11] [fold]
CC(C)C[C@H](NC(=O)[C@H](CCC(=O)O)NC(=O)[C@H](CCC(N)=O)NC(=O)[C@@H](N)CO)C(=O)N[C@@H](Cc1c[nH]cn1)C(=O)N[C@@H](CCCCN)C(=O)N[C@@H](CC(C)C)C(=O)N[C@@H](CCC(N)=O)C(=O)N[C@H](C(=O)N[C@@H](Cc1ccc(O)cc1)C(=O)N1CCC[C@H]1C(=O)N[C@@H](CCCNC(=N)N)C(=O)N[C@H](C(=O)N[C@@H](CC(N)=O)C(=O)N[C@H](C(=O)O)[C@@H](C)O)[C@@H](C)O)[C@@H](C)O [API SCT(13-27)] (H-SQELHKLQTYPRTNT-OH) | 3.35 | 66.4 | > 1000 | > 1000 | > 1000 | 161 | 8.72 | 2.29 |  |  |  |  |  |  |  |  |  | 
CC(=O)NCCCC[C@H](NC(=O)CNC(=O)[C@H](CC(C)C)NC(=O)[C@@H](NC(=O)[C@H](CO)NC(=O)[C@@H](NC(=O)[C@@H](N)CO)[C@@H](C)O)C(C)C)C(=O)N[C@@H](CC(C)C)C(=O)N[C@@H](CO)C(=O)N[C@@H](CCC(N)=O)C(=O)N[C@@H](CCC(=O)O)C(=O)N[C@@H](CC(C)C)C(=O)N[C@@H](Cc1c[nH]cn1)C(=O)N[C@@H](CCCCN)C(=O)N[C@@H](CC(C)C)C(=O)O [LYS-AC11_SCT(5-19)] (H-STSVLGK(Ac)LSQELHKL-OH) | 12.3 | > 1000 | > 1000 | > 1000 | > 1000 | > 1000 | > 1000 | 12.8 | non-binder | non-binder | non-binder | non-binder | loss of binding | non-binder |  |  |  | 
CSNLSTCVLGKLSQELHKLQTYPRTNTGSGTP (disulfide) [SCT API, salmon calcitonin, 32-amino acid peptide drug, disulfide Cys1-Cys7, C-terminus amidated] |  |  |  |  |  |  |  |  |  |  |  |  |  |  | 44 | 7 | more than 60% | 50
